The METLIN SMRT retention time set (Domingo-Almenara et al. 2019)

Experiment: gradient 5% acetonitrile 3 min, to 50% in 2 min, to 85% in 15 min, held 3 min, 100 µL/min
Settings: column: Zorbax Extend-C18 2.1 x 50 mm; eluents: water / acetonitrile, 0.1% formic acid
Procedure, shortened: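 Mixtures of ~100 pure standards were chromatographed on a Zorbax Extend-C18 column (2.1 × 50 mm, 1.8 μm) at 100 μL/min using water and acetonitrile, each with 0.1% formic acid. Detection used a quadrupole time-of-flight mass spectrometer in positive and negative ionization mode, and data collection spanned 3 months. Retention time was obtained from adduct peaks picked computationally and each checked manually.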

| SMILES | RP-LC retention time [s] |
| --- | --- |
| Cc1cc2nc(C(F)(F)F)c(=O)n(C(C)C(=O)N3CCN(C(=O)c4ccco4)CC3)c2cc1C (stereo unspecified) | 957 |
| Cc1nnc2ccc(-c3noc(-c4ccccc4F)n3)cn12 | 770 |
| CCCN(Cc1ccc(OCC)cc1)Cc1cc(=O)n2cc(Cl)ccc2n1 | 686 |
| O=C(Nc1ncccn1)c1ccc(Cl)c(S(=O)(=O)N2CCOCC2)c1 | 611 |
| CCOC(=O)N1CCN(C(=O)C2CCN(c3ccc(Sc4ccc(C(C)C)cc4)nn3)CC2)CC1 | 896 |
| CCn1ccc2cc(S(=O)(=O)N3CCCC(C(=O)NCCCN4CCOCC4)C3)ccc21 (stereo unspecified) | 648 |
| COc1ccc(-c2ncc3c(n2)CCN(S(=O)(=O)c2ccccc2C)C3)cc1 | 1070 |
| Cc1cc(F)ccc1NC(=O)CCc1c(C)nn(-c2cc(N(C)C)ncn2)c1C | 778 |
| O=C(Cn1nc2c3cc(-c4ccc(F)cc4)nn3ccn2c1=O)Nc1ccccc1Br | 945 |
| CN1C(=O)c2cccc(NC(=O)c3ccc(S(=O)(=O)N4CCOCC4)cc3)c2C1=O | 813 |
| O=C(NCCc1c[nH]c2ccccc12)c1ccc(N2CCCC2)c(S(=O)(=O)N2CCCC2)c1 | 979 |
| Cc1nn2c(CNS(=O)(=O)Cc3ccccc3Cl)c(-c3ccccc3)nc2s1 | 919 |
| COc1ccc(C)cc1NC(=O)Cn1nc(N2CCCC(C)C2)c2ccccc2c1=O (stereo unspecified) | 1260 |
| Clc1cccc(-c2noc(Cn3ccnc3)n2)c1 | 636 |
| CC1CCN(S(=O)(=O)c2ccc(-c3nnc(C(=O)NCCc4ccccc4)o3)cc2)CC1 | 1100 |
| Cn1c(=O)sc2cc(S(=O)(=O)N3CCC(C(=O)N4CCc5ccccc5C4)CC3)ccc21 | 896 |
| O=C(Nc1cc(-c2ccccn2)no1)c1cccc(F)c1 | 791 |
| Cc1c(C(=O)N2CCCC(C)C2)cnn1-c1ccc(-c2nc(C(C)(C)C)no2)cn1 (stereo unspecified) | 1230 |
| Cc1nc(N2CCC(C(=O)Nc3cc(F)ccc3F)CC2)c2c(C)c(C)oc2n1 | 972 |
| CC(=O)N1c2ccc(S(=O)(=O)N3CCCC3)cc2CC1C(=O)NCCCc1ccccc1 (stereo unspecified) | 868 |
| CCOc1ccc(CNC(=O)c2cnc(OC)nc2)cc1 | 732 |
| Cc1nc2nc(-c3ccccc3)nn2c(C)c1CC(=O)N1CCCCC1C (stereo unspecified) | 836 |

| SMILES | RP-LC retention time [s] |
| --- | --- |
| Cc1ccc(C)c(N2CCN(C(=O)c3cc(-c4ccncc4)cn3C)CC2)c1 | 710 |
| CCCNC(=O)N1CCCCC1c1n[nH]c(C)n1 (stereo unspecified) | 577 |
| CCn1ccc2cc(S(=O)(=O)N3CCCC(C(=O)NCCN4CCCCC4)C3)ccc21 (stereo unspecified) | 668 |
| COc1nn(C)cc1C(=O)NCC(O)c1ccc(C(F)(F)F)cc1 (stereo unspecified) | 669 |
| C[C@H]1CC2C3CCC4=CC(=O)C=C[C@]4(C)[C@@]3(Cl)[C@@H](O)C[C@]2(C)[C@@]1(O)C(=O)CO (stereo partly specified) | 832 |
| O=C(CN1C(=O)c2cccc3cccc(c23)C1=O)NCc1ccc2c(c1)OCO2 | 747 |
| CCCN(C)CC1(O)CCC2(CCN(C(=O)c3ccc(Cl)s3)CC2)CC1 | 647 |
| CN(C)C(=O)/N=N/C(=O)N(C)C | 597 |
| O=C(NCc1ccccc1)c1c(O)c2cccnc2n(-c2ccccc2)c1=O | 1160 |
| Cc1sc(-c2nnc(C(C)C)o2)cc1NS(C)(=O)=O | 808 |
| COc1ccc(Nc2cc(C(=O)N3CCC(C)CC3)nc3cc(OC)c(OC)cc23)cc1Cl | 778 |
| Cc1ccnc(NS(=O)(=O)c2ccc(NC(=O)c3ccc([N+](=O)[O-])s3)cc2)n1 | 699 |
| Cc1oc(C2CCN(C(=O)Nc3ccc(F)cc3F)CC2)nc1C(=O)N1CCOCC1 | 680 |
| COc1ccc(CNC(=O)c2ccc3c(=O)n(-c4ccccc4)c(N4CCCC4)nc3c2)c(OC)c1 | 879 |
| O=C(COc1ccc(NC(=O)C2CC2)cn1)NC1CCN(Cc2ccccc2)CC1 | 590 |
| COc1ccc(OC)c(CNC(=O)COc2nc(C)nc3oc(C)c(C)c23)c1 | 866 |
| O=C(c1ccc(Cl)cc1)N1CCN(C(=O)c2nnn3c2COC(c2ccccc2)C3)CC1 (stereo unspecified) | 888 |
| COc1ccc2[nH]cc(CCNCc3ccc(Br)cc3)c2c1 | 764 |
| CCn1c(=O)sc2cc(S(=O)(=O)N3CCC(C(=O)Nc4cccc(F)c4)CC3)ccc21 | 941 |
| COc1cncc(C(=O)Nc2cc(F)ccc2F)c1 | 735 |
| CCOC(=O)c1c(C)oc2nc(C)nc(NCCCN(C)c3ccccc3)c12 | 701 |
| CN1C(=O)COc2ccc(-c3csc(NC(=O)CCC4CCCCC4)n3)cc21 | 1140 |

| SMILES | RP-LC retention time [s] |
| --- | --- |
| COc1ccc(-c2csc(C)n2)cc1S(=O)(=O)N1CCN(c2cccc(Cl)c2)CC1 | 1170 |
| O=C(Cc1cccs1)NCC1CCS(=O)(=O)C1 (stereo unspecified) | 586 |
| Cc1cc(NC(=O)c2cn(Cc3cccc(F)c3)nc2OCc2cccc(F)c2)no1 | 1040 |
| CCc1ccc(NC(=O)N2CCC(n3cnc4c(C)cccc4c3=O)CC2)cc1 | 838 |
| O=c1cc(CSc2nnc(-c3cccc(Cl)c3)o2)nc2sccn12 | 832 |
| O=C(C1CCN(c2nc3ccc(-c4ccccc4)nc3s2)CC1)N1CCCC1 | 910 |
| CCc1ccc2c(c1)-c1ccccc1S(=O)(=O)N2CC(=O)NCCCn1ccnc1 | 675 |
| Cn1nc(-c2nc(C3CC3)no2)c2c1CCN(S(=O)(=O)c1ccc(F)cc1)C2 | 925 |
| Cc1ccc2c(C(=O)N3CCN(CC(C)C)CC3)cc(NC(=O)C3CCC3)cc2n1 | 562 |
| O=C(N[C@H]1C[C@@H]2C[C@H]1CN2C(=O)c1ccc(Cl)s1)c1cccnc1 | 659 |
| CC(C)CN1Cc2ccccc2-n2ccnc2C12CCN(C(=O)c1ccco1)CC2 | 654 |
| CNC(=O)C1CCN(c2nc3ccc(-c4cccc(OC)c4)nc3s2)CC1 | 801 |
| CC(C)Cn1c(=O)c2cc(C(=O)NC(C)c3cccs3)nn2c2ccccc21 (stereo unspecified) | 1050 |
| CC(C)n1c(N2CCN(C(=O)C3CC(=O)N(CCc4ccccc4)C3)CC2)cc(=O)n(C(C)C)c1=O (stereo unspecified) | 786 |
| O=C(O)C1=CCCN(CCON=C(c2ccccc2)c2ccccc2)C1 | 766 |
| CCCCOc1ccc(-c2cc3c4nn(CC(=O)NC5CCCC5)c(=O)n4ccn3n2)cc1 | 1050 |
| CCC1CCCCN1C(=O)CC1CCN(S(=O)(=O)c2ccc3c(c2)oc(=O)n3C)CC1 (stereo unspecified) | 872 |
| Cc1cc(-c2nnc(-c3ccc(F)cc3)o2)c(C)n1CC(=O)NCc1cccc(F)c1 | 940 |
| Cc1ccc(N2CC(c3nc(-c4ccc5c(c4)nnn5C4CCCC4)no3)CC2=O)cc1 (stereo unspecified) | 1070 |
| O=C(CC1CCN(S(=O)(=O)c2ccc(Cl)s2)CC1)N1CCN(c2ncccn2)CC1 | 872 |
| O=C(Nc1cnc(N2CCCCCC2)nc1)c1cnccn1 | 771 |
| Cc1ccc(-c2cn3cc(C(=O)N4CCCN(C)CC4)ccc3n2)cc1C | 583 |

| SMILES | RP-LC retention time [s] |
| --- | --- |
| Cn1nc(C(=O)NCc2ccc3c(c2)OCO3)c2c1CCN(C(=O)COc1ccc(Cl)cc1)C2 | 856 |
| O=C(c1ccoc1)N1CCC2(CCCCO2)CC1 | 639 |
| CCn1c(=O)c2ccccc2n(Cc2nc(-c3ccc(OC)c(OC)c3)no2)c1=O | 920 |
| CCC1(O)CCC12CCN(C(=O)c1ccoc1)CC2 (stereo unspecified) | 691 |
| Cc1cccnc1NC(=O)C1CCN(S(=O)(=O)c2cc(C(=O)N3CCOCC3)cs2)CC1 | 606 |
| Cc1cc(C)cc(NC(=O)Cc2csc3nc(-c4ccc(C)c(C)c4)cn23)c1 | 966 |
| Cc1ccc(CNC(=O)c2ccc3c(c2)nc2n3CCN(C3CCCCC3)C2=O)cc1 | 839 |
| CS(=O)(=O)N1CCCC(C(=O)NC2CCCC2)CCNC(=O)CC1 (stereo unspecified) | 603 |
| O=c1c2cc3c(cc2nc(SCc2nc(-c4ccc(Cl)cc4)no2)n1CC1CCCO1)OCO3 (stereo unspecified) | 1230 |
| CCOC(=O)N1CCN(C(=O)CCC2CCN(c3cc(NC4CC4)ncn3)CC2)CC1 | 561 |
| CC1(C)CC(=O)c2cn(-c3ccccc3)c(=O)c(C(=O)Nc3ccc4c(c3)OCCO4)c2C1 | 976 |
| COCCn1nc(N2CCCC(NS(=O)(=O)c3c(C)nn(C)c3C)C2)ccc1=O (stereo unspecified) | 622 |
| Cc1cccc(-c2noc(C3CCCN3C(=O)Nc3ccccc3F)n2)c1 (stereo unspecified) | 1020 |
| O=C(c1cc(-c2ccccc2)n(C2CCS(=O)(=O)C2)n1)N1CCCC1 (stereo unspecified) | 682 |
| CCc1nc(-c2ccc(S(=O)(=O)N3CCC(C(=O)N4CCc5ccccc54)CC3)cc2)no1 | 802 |
| Cc1cccc(-c2nnc(-c3cccc(S(=O)(=O)N4CCCCCC4)c3)o2)c1 | 1190 |
| O=C(CSc1ccc(S(=O)(=O)C2CCCCC2)nn1)NCc1cc(F)cc(F)c1 | 833 |
| COc1ccc(OCc2noc(CNC(=O)c3cccnc3)n2)cc1 | 749 |
| CCc1noc2nc(CCC(=O)NCc3ccco3)nc(N3CCCCC3)c12 | 829 |
| CCN(CC)C(=O)c1cc(NS(=O)(=O)c2ccc(C(C)(C)C)cc2)cnc1N1CCNCC1 | 680 |
